Test results as given in paper PMC3843973 (Journal of medicinal chemistry, 2013).
Where two headings read alike, the source gives them in different places.

What was measured:
[1] = test system: BALB/cJ male mice; settings: mouse
[2] = bidirectional Caco-2 cell permeability assay; assay type: in vitro ADME; settings: human, Caco-2, pH 7.4
[3] = test system: Caco-2 cells; test: bidirectional Caco-2 cell permeability assay; assay type: in vitro ADME; settings: Caco-2 bidirectional
[4] = chemical stability on storage; assay type: physicochemical; settings: stored at room temperature for several months
[5] = test system: strains TA98, TA100, TA1535, and TA1537; test: bacteria reversion mutation assay; settings: strain TA1537 in the presence of S9 fraction, 50 and 100 μM
[6] = molecular target: rat α2β2 nAChR (Rattus norvegicus, UniProt P12389+P12390); settings: read-out: Ki α2β2; cited from earlier work
rat α2β2 nAChR, sequence (P12389 28-511): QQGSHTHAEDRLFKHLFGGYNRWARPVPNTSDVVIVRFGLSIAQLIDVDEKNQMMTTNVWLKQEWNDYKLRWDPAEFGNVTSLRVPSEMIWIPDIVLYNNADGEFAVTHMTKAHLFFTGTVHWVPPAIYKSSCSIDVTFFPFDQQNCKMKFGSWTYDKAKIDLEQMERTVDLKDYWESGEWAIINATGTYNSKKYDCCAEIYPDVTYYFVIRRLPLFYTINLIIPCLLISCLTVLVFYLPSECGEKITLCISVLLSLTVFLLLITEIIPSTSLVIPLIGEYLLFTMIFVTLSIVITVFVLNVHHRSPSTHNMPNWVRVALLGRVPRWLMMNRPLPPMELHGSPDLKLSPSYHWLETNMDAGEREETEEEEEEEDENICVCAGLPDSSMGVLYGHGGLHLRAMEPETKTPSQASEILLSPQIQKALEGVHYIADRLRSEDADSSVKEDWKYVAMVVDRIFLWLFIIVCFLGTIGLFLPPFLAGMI
rat α2β2 nAChR, sequence (P12390 25-500): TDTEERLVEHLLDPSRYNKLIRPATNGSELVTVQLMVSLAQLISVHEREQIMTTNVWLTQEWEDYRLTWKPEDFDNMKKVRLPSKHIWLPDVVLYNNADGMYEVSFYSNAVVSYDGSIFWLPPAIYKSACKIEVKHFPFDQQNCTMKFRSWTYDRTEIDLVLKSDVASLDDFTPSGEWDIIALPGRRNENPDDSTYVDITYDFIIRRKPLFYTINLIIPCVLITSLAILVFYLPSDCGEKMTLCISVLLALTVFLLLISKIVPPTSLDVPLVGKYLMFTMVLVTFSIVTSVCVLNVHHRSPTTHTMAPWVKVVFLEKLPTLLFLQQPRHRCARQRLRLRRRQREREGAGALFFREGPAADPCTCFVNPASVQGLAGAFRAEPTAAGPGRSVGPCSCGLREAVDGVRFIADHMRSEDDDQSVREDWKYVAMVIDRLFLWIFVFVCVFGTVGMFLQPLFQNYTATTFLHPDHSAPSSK

[7] = molecular target: rat α2β4 nAChR (Rattus norvegicus, UniProt P12389+P12392); settings: read-out: Ki α2β4; cited from earlier work
rat α2β4 nAChR, sequence (P12389 28-511): as the sequence (P12389 28-511) above
rat α2β4 nAChR, sequence (P12392 21-495): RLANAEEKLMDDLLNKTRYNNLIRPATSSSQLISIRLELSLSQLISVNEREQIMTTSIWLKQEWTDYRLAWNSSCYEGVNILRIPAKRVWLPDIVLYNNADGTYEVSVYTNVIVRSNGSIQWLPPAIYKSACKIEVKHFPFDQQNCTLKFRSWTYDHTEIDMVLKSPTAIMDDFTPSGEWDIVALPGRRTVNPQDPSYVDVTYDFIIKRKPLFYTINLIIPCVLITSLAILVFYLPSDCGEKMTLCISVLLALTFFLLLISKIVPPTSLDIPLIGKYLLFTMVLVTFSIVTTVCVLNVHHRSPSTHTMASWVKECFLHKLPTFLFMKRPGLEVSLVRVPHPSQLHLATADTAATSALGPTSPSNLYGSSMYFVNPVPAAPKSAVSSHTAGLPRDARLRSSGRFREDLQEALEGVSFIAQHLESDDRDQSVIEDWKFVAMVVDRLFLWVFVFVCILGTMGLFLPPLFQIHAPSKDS

[8] = molecular target: rat α3β2 nAChR (Rattus norvegicus, UniProt P04757+P12390); settings: read-out: Ki α3β2; cited from earlier work
rat α3β2 nAChR, sequence (P12390 25-500): as the sequence (P12390 25-500) above
rat α3β2 nAChR, sequence (P04757 26-499): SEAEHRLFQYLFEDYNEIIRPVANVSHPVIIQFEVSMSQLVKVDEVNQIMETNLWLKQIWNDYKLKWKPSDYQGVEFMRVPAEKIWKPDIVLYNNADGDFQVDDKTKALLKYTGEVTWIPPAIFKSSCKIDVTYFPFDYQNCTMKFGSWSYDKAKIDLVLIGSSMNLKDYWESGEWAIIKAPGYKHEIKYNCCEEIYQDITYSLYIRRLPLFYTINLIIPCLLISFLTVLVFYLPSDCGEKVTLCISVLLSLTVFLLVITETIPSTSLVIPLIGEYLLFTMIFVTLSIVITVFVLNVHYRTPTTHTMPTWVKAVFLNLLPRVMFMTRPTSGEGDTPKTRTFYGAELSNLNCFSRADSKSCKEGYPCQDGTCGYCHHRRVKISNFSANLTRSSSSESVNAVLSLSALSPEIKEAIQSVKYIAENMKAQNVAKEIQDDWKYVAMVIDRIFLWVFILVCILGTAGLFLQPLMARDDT

[9] = molecular target: rat α3β4 nAChR (Rattus norvegicus, UniProt P04757+P12392); settings: cited from earlier work
rat α3β4 nAChR, sequence (P12392 21-495): as the sequence (P12392 21-495) above
rat α3β4 nAChR, sequence (P04757 26-499): as the sequence (P04757 26-499) above

[10] = molecular target: rat α4β2 nAChR (Rattus norvegicus, UniProt P09483+P12390); settings: read-out: Ki α4β2; cited from earlier work
rat α4β2 nAChR, sequence (P12390 25-500): as the sequence (P12390 25-500) above
rat α4β2 nAChR, sequence (P09483 31-630): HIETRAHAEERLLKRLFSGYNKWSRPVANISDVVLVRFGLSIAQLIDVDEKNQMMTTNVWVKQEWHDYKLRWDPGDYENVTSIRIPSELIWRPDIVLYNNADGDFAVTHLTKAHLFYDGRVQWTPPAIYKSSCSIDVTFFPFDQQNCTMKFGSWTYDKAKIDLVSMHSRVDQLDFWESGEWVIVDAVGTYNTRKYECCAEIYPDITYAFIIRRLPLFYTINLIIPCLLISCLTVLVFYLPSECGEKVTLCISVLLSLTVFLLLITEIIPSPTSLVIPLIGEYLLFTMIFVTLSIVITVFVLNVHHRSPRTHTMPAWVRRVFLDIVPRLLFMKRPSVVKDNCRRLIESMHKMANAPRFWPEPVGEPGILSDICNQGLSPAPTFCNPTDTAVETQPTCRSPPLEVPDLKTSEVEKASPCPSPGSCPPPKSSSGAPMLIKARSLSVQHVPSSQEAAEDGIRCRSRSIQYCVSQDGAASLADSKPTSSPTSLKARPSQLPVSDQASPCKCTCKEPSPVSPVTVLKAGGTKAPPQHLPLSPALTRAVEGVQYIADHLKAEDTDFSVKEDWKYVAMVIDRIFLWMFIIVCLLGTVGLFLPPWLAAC

[11] = molecular target: α4β2*-nAChR, prepared from rat forebrain (Rattus norvegicus, UniProt P09483+P12390); settings: read-out: Ki α4β2*; cited from earlier work
α4β2*-nAChR, prepared from rat forebrain, sequence (P09483 31-630): as above
α4β2*-nAChR, prepared from rat forebrain, sequence (P12390 25-500): as the sequence (P12390 25-500) above

[12] = molecular target: rat α4β4 nAChR (Rattus norvegicus, UniProt P09483+P12392); settings: read-out: Ki α4β4; cited from earlier work
rat α4β4 nAChR, sequence (P12392 21-495): as the sequence (P12392 21-495) above
rat α4β4 nAChR, sequence (P09483 31-630): as the sequence (P09483 31-630) above

[13] = molecular target: human α4β2-nAChRs (Homo sapiens, UniProt P17787+P43681); assay type: cell-based; settings: mixture of HS and LS α4β2-nAChRs; 10 min preincubation
human α4β2-nAChRs, sequence (P43681 29-627 limits assumed): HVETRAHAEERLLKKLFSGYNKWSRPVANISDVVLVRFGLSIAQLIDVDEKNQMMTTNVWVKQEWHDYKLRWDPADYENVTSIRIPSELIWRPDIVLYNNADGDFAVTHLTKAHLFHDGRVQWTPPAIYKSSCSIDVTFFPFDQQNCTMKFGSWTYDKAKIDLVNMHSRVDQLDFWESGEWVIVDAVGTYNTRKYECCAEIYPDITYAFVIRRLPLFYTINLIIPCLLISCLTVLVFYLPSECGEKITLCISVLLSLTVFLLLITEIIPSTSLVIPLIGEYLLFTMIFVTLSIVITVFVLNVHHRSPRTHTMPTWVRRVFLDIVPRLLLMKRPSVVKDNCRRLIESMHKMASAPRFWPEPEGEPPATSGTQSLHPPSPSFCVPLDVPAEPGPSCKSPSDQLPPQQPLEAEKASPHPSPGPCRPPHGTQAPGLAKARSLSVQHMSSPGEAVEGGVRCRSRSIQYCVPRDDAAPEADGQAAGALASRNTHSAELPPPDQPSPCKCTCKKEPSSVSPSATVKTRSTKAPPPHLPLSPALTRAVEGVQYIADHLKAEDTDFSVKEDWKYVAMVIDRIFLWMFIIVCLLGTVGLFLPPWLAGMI
human α4β2-nAChRs, sequence (P17787 26-502): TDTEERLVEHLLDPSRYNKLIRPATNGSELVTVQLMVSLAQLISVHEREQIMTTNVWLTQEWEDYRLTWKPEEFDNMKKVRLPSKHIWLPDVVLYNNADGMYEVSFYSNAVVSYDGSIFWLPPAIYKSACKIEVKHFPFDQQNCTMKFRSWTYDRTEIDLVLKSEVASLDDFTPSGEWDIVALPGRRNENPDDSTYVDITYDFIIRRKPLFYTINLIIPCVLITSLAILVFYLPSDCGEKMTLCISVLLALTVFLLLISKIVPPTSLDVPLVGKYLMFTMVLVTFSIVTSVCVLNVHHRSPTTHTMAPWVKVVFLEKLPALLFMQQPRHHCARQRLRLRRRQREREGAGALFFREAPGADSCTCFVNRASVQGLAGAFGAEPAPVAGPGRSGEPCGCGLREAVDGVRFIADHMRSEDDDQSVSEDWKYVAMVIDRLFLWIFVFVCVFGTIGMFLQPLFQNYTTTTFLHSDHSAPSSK

COCC[C@H]1C[C@@H]1c1cncc(OC[C@H]2CCNC2)c1.O=C(O)C(F)(F)F [Compound 30, 3-[(3(S)-Pyrrolidinyl)methoxy]-5-[(1S,2R)-2-(2-methoxyethyl)cyclopropyl]pyridine Trifluoroacetate]
abnormal behavioral effects ([1]; intraperitoneal, 5 mg/kg): sedation and tremor

COCC[C@H]1C[C@@H]1c1cncc(OC[C@@H]2CCCN2)c1.O=C(O)C(F)(F)F [Compound 24, 3-[(2(S)-Pyrrolidinyl)methoxy]-5-[(1S,2R)-2-(2-methoxyethyl)cyclopropyl]pyridine Trifluoroacetate]
effect in the forced swim test ([1]; in vivo): no significant effects

COCC[C@H]1C[C@@H]1c1cncc(OC[C@@H]2CCCN2C)c1.O=C(O)C(F)(F)F [Compound 26, 3-[(1-Methyl-2(S)-pyrrolidinyl)methoxy]-5-[(1S,2R)-2-(2-methoxyethyl)cyclopropyl]pyridine Trifluoroacetate]
efflux ratio [2]: 0.2 | permeability class [3]: high permeability | chemical stability [4]: little or no sign of decomposition | minimal dose with significant reduction in immobility ([1]; in vivo, ip): 1 mg/kg | minimal dose with significant reduction in immobility ([1]; in vivo, po): 1 mg/kg | Ames test mutagenic potential [5]: positive significance

OCCCCC#Cc1cncc(OC[C@@H]2CCN2)c1 [saz-A, sazetidine-A]
Ki [6]: 0.087 nM | Ki [7]: 210 nM | Ki [8]: 0.38 nM | Ki ([9]; read-out: Ki α3β4): 1900 nM | Ki [10]: 0.062 nM | Ki [11]: 0.17 nM | Ki [12]: 52 nM

CN[C@H]1CC[C@@H](c2ccc(Cl)c(Cl)c2)c2ccccc21 [sertraline, reference compound]
effect on immobility (positive control) ([1]; 20 mg/kg): expected decrease in immobility

COCC[C@H]1C[C@@H]1c1cncc(OC[C@@H]2CCN2)c1 [Compound 4]
Inactivation α4β2 Efficacy [13]: 71 ± 5.5% | Ki α3β4 [9]: NA (not active, defined as < 50% binding in the primary assay at 10 μM)
